For data set [1], the system named is methicillin-resistant Staphylococcus aureus (MRSA). The note with it: in vitro assay; synthetic peptide; cited from earlier work. An excerpt:
Piscidins are cationic AMPs expressed by fish mast cells. […] The piscidin family includes pleurocidin, moronecidin, chrysophsin, dicentracin, epinecidin-1, and myxinidin. Piscidins have a widespread presence in higher teleosts, so far including 11 species in eight families of the Moronidae, Sciaenidae, Sparidae, Latidae, Siganidae, Belontida ...

The test system of a further data set is V. vulnificus 204. The data set is classed as cell-based, Vibrio vulnificus. The note with it: 204, pH 7.4. Here is the method:
(§1) Escherichia coli for transformation was cultured in LB medium at 37°C.
(§2) Peptides were synthesized by GL Biochem (Shanghai, China) using a solid-phase procedure of Fmoc chemistry. Crude peptides were extracted, lyophilized, and purified by reverse-phase high-performance liquid chromatography (HPLC). The molecular masses and purities of the purified peptides were respectively verified by mass spectroscopy and HPLC. Synthetic peptides at >95% purity were reconstituted in phosphate-buffered saline (PBS; pH 7.4) for the experiments. The TP1 sequence was FDWDSVLKGVEGFVRGYF, the TP2 sequence was […], the TP3 sequence was […], the TP4 sequence was […], the TP5 sequence was […], the epinecidin-1 (Epi-1) sequence was […], and the cod pis 1 sequence was […]. C terminals of all synthetic peptides were amidated. The minimal inhibitory concentration (MIC) was measured for each strain of microorganism listed above. The MICs of the peptides were determined by a broth microdilution analysis based on an online method (http://cmdr.ubc.ca/bobh/methods/MODIFIEDMIC.html; Hancock Laboratory Methods. Department of Microbiology and Immunology, University of British Columbia, British Columbia, Canada) without modification.

The next data set concerns A. hydrophila BCRC 13018. The data set is classed as cell-based, Aeromonas hydrophila. The note with it: BCRC 13018, pH 7.4. Here is the method: as §1, §2
The subject of another data set is V. alginolyticus. In kind it is cell-based, Vibrio alginolyticus. The conditions noted are these: pH 7.4. Here is the method:
as §1, §2

Another data set deals with P. aeruginosa ATCC 19660. In kind it is cell-based, Pseudomonas aeruginosa. The note with it: ATCC 19660, pH 7.4. How it is done:
as §1, §2

Another data set deals with S. agalactiae 819. In kind it is cell-based, Streptococcus agalactiae. The conditions noted are these: 819, pH 7.4. Here is the method: as §1, §2
For a further data set, the system named is S. agalactiae BCRC 10787. In kind it is cell-based, Streptococcus agalactiae. The note with it: BCRC 10787, pH 7.4. How it is done: as §1, §2
The next data set has as its system E. faecalis BCRC 10066. In kind it is cell-based, Enterococcus faecalis. The conditions noted are these: BCRC 10066, pH 7.4. Here is the method: as §1, §2
The test system of another data set is erythrocytes of tilapia. In kind it is cell-based. How it is done:
(§3) The hemolytic activities of Nile tilapia piscidins were determined according to a previous method, [34]. In brief, erythrocytes of tilapia (2×10^7 cells) were washed three times with 0.9% NaCl and incubated with various concentrations of the peptides for 3 h at 37°C. After centrifugation, the absorbance at 545 nm of the suspension was determined. Erythrocytes in PBS (Ablank) and 0.1% Triton X-100 (Atriton) respectively served as the negative and positive controls. The percentage of hemolysis was calculated according to the equation described in a previous publication. The hemolysis assay was performed in triplicate.

A further data set deals with human erythrocytes. The data set is classed as cell-based. Here is the method:
as §3
Supplementary file pone.0050263.s004.tif: Figure S4 In vitro assays used HeLa (ATCC: CCL-2™), RAW264.7 (ATCC: TIB-71™), and MRC-5 (ATCC: CCL-171™) cells. Tumor cells (HeLa and RAW264.7 cells) and normal cells (MRC-5) were treated with different doses of piscidin peptides (TP1∼5) for 24 h, followed by an MTS assay. Each concentration was repeated in eight wells for three independent experiments. Results are expressed as a percentage of the survival rate of viable cells. Piscidin treatment affected cell viability in a dose-dependent manner. There were significant differences between treatment groups for TP4 and TP3. Data are from three separate experiments. Hemolytic activities of TP1∼5 against human erythrocytes. […]

Where no end group is shown, it is not given here.

Results on 8 substances are retold here after paper PMC3511469, “Five Different Piscidins from Nile Tilapia, Oreochromis niloticus: Analysis of Their Expressions and Biological Functions” (PLoS ONE, 2012).

The MIC is the smallest concentration in the dilution series that meets the test's criterion for growth inhibition.

For the substance “FFHHIFRGIVHVGKTIHRLVTG [piscidin 1, synthetic piscidin 1, literature values]”, the minimal inhibitory concentration (MIC) in data set [1] is recorded as 3.1 µM.
As to FIHHIIGGLFSAGKAIHRLIRRRRR-NH2 [TP4], the MIC in the data set with V. vulnificus 204 came out at 0.03 µg/mL; against A. hydrophila BCRC 13018 it was 1.05 µg/mL; against V. alginolyticus it was 0.03 µg/mL; with P. aeruginosa ATCC 19660 it was 0.52 µg/mL; in the data set with S. agalactiae 819 it was 2.10 µg/mL; with S. agalactiae BCRC 10787 it was 0.13 µg/mL. The substance also displayed an MIC against E. faecalis BCRC 10066 of 8.39 µg/mL. Also, the “concentration at which the hemolytic effect began” value in the data set on erythrocytes of tilapia and with human erythrocytes was 400 to 800 ng/mL throughout.
In the case of FIHHIIGGLFSVGKHIHSLIHGH-NH2 [TP3], the minimum inhibitory concentration (MIC) in the data set with V. vulnificus 204 was 2.44 µg/mL; in the data set on A. hydrophila BCRC 13018, over 19.55 µg/mL; against V. alginolyticus it was 2.44 µg/mL; with P. aeruginosa ATCC 19660, over 19.55 µg/mL; against S. agalactiae 819, 9.78 µg/mL; against S. agalactiae BCRC 10787, 0.61 µg/mL. Besides, the MIC against E. faecalis BCRC 10066 is 19.55 µg/mL. In addition, the “hemolytic activity toward human erythrocytes” value in the data set on human erythrocytes is on record as “low hemolytic activity”.
As to QLQGKQVSGEVVQKVLQELIQSVAKP-NH2 [TP5], the MIC with V. vulnificus 204, against A. hydrophila BCRC 13018, against V. alginolyticus, in the data set with P. aeruginosa ATCC 19660, against S. agalactiae 819 and against S. agalactiae BCRC 10787 was over 17.64 µg/mL each time. In the data set on E. faecalis BCRC 10066, this substance came in with an MIC of over 17.64 µg/mL.
Consider “FIHHIIGWISHGVRAIHRAIHG-NH2 [cod Pis 1, reference compound]”, for which the MIC against V. vulnificus 204 is 0.62 µg/mL; in the data set with A. hydrophila BCRC 13018, 19.78 µg/mL; against V. alginolyticus, 1.24 µg/mL; in the data set on P. aeruginosa ATCC 19660, over 19.78 µg/mL; against S. agalactiae 819, 9.89 µg/mL; in the data set with S. agalactiae BCRC 10787, 0.31 µg/mL. In the data set with E. faecalis BCRC 10066, this substance returned a minimum inhibitory concentration (MIC) of 9.89 µg/mL.
As for “GFIFHIIKGLFHAGKMIHGLV-NH2 [Epi-1, epinecidin-1, reference compound]”, the MIC is 0.67 µg/mL in the data set with V. vulnificus 204; over 21.41 µg/mL in the data set on A. hydrophila BCRC 13018; 2.68 µg/mL against V. alginolyticus; 10.70 µg/mL with P. aeruginosa ATCC 19660; over 21.41 µg/mL in the data set on S. agalactiae 819; 0.33 µg/mL in the data set with S. agalactiae BCRC 10787. In the data set with E. faecalis BCRC 10066, the minimum inhibitory concentration (MIC) was over 21.41 µg/mL.
On to FDWDSVLKGVEGFVRGYF-NH2 [TP1], for which the MIC in the data set with V. vulnificus 204, with A. hydrophila BCRC 13018, in the data set with V. alginolyticus, with P. aeruginosa ATCC 19660, in the data set with S. agalactiae 819 and in the data set with S. agalactiae BCRC 10787 was over 23.57 µg/mL each time. The same substance registered an MIC in the data set with E. faecalis BCRC 10066 of over 23.57 µg/mL.
As to GECIWDAIFHGAKHFLHRLVNP-NH2 [TP2], the MIC in the data set on V. vulnificus 204, against A. hydrophila BCRC 13018, in the data set on V. alginolyticus, against P. aeruginosa ATCC 19660, against S. agalactiae 819 and against S. agalactiae BCRC 10787 was over 19.52 µg/mL each time. Moreover, in the data set on E. faecalis BCRC 10066, the MIC was over 19.52 µg/mL.
